These results are taken from PMC12186490, “Environmental pH controls antimicrobial production by human probiotic Streptococcus salivarius” (Journal of Bacteriology, 2025).

Molecules are shown by their SMILES.

This assay concerns sar-BGC (sarD) expression in WT SAL. Nature of the assay: sarD transcript levels by qRT-PCR after lactate supplementation of WT SAL. In kind it is cell-based, Streptococcus salivarius K12. To be noted: WT SAL at late-exponential growth (A600 ~ 2.0), fresh THY with sodium lactate, 15 minutes; relative to WT-LE growth; three biological replicates. The protocol:
Fig 2 SAL upregulates sar-BGC expression in concert with environmental acidification. (A) Wild-type (WT) SAL was grown in THY broth, and samples were collected at the indicated time points. Growth medium pH, sar-BGC (sarD) transcript levels, and bacterial growth by absorption at wavelength 600 nm (A600) were determined. Right y-axes represent fold change in sar-BGC transcript levels (green) and A600 (red), whereas the left y-axis represents pH of the growth medium (black). Fold changes in transcript levels at indicated time points relative to starting culture (time point t = 0 h) are shown. Data are mean ± standard deviation for three biological replicates. (B) WT SAL grown in THY to late-exponential growth phase (LE, A600 ~ 2.0) was harvested by centrifugation, suspended in THY broth adjusted to indicated pH, and incubated for 15 minutes. […] P values assessed by t-test analyses relative to WT LE growth are shown (n.s, not significant; *, P < 0.05; ****, P < 0.0001). […]
SAL and other lactic acid bacteria acidify their environment via lactic acid production during their growth. […] After 15 min incubation, cells were collected and sarD transcript levels in each pH were assessed by quantitative real-time PCR (qRT-PCR). […] To test whether lactate acts as a signal for the induction of sar-BGC expression, we assessed sarD transcript levels in SAL grown in the presence of lactate. […]

For `CC(O)C(=O)[O-].[Na+]` (stereo not shown) [lactate, sodium lactate], the “induction of sar-BGC expression (sarD transcript levels)” value is “did not induce sar-BGC expression”.
